Source: patent EP3046573B1, “AMYLIN ANALOGUES” (Zealand Pharma A/S, priority 2013, dated 2015)
Numbered stars: 1 amine (or outer) side, 2 acyl side, 3 side chain; on linkers, the order of the positions; unused ones are H or OH. Bridge positions count the residues as written; N and C are the ends. Square brackets hold non-standard residues; d marks the D form. Peptide text beside a SMILES is read from it. * marks the point of attachment. C20 diacid = O=C(O)CCCCCCCCCCCCCCCCCCC(=O)*; Pro(4R-NH2) = N[C@H]1CN[C@H](C(=O)O)C1; γGlu = O=C(O)[C@H](CCC(=O)[*:2])N[*:1]; Hyp = O=C(O)[C@@H]1C[C@@H](O)CN1; NMeI = CC[C@H](C)[C@H](NC)C(=O)O; Sar = CNCC(=O)O

Assay: Assessment of chemical stability: normalized purity by RP-HPLC after incubation at 40 °C
Format: physicochemical
Details: normalized purity (T=0 set to 100), 0.2 mg/ml; for Chem. stability; 7 days, 40°C pH 4: pH 4, 7 days; for Chem. stability; 7 days, 40°C pH 7.5: pH 7.5, 7 days; for Chem. stability; 7 days, 40°C pH 9: pH 9, 7 days
Procedure: Samples of each test peptide were dissolved in MilliQ™ water, and the pH of the solution was adjusted to pH 4, pH 7.5 or pH 9, respectively, using either HCI or NaOH. The final peptide concentration was 0.2 mg/ml. Samples were placed in glass vials and incubated at 40 °C. The samples were analyzed by RP-HPLC on a C8 column with gradient elution using an ammonium formate/water eluent system, or on a C18 column with gradient elution using a trifluoroacetic acid/water eluent system. The area-percentage (area-%) of the main peak after incubation time T = t (relative to time T = 0) was determined by UV spectroscopy at 220 nm.
The purity was first determined as follows: Purity(area−%) = (area of main peak/total area of all peaks) × 100. [formula]
The purity was then normalized between time points by setting purity at time 0 (T=0) to 100 for each pH value for a given peptide, as follows: Normalised area−%at time t(T = t) = [area−%(T = t)/area−%(T = 0)] × 100. [formula]
The normalized purity values in Table 2 were determined after 7 days of incubation. Table 2. EC50, chemical stability and fibrillation data for compounds of the invention

Row | SMILES | Chem. stability; 7 days, 40°C pH 4 | Chem. stability; 7 days, 40°C pH 7.5 | Chem. stability; 7 days, 40°C pH 9
1 | CC[C@H](C)[C@@H](C(=O)N[C@@H](CC(C)C)C(=O)N[C@@H](CO)C(=O)N[C@@H](CO)C(=O)N[C@H](C(=O)N[C@@H](CC(N)=O)C(=O)N[C@H](C(=O)NCC(=O)N[C@@H](CO)C(=O)N[C@@H](CC(N)=O)C(=O)N[C@H](C(=O)N1CCC[C@H]1C(N)=O)[C@@H](C)O)C(C)C)[C@@H](C)O)N(C)C(=O)[C@H](C)NC(=O)CN(C)C(=O)[C@H](Cc1ccccc1)NC(=O)[C@H](CC(N)=O)NC(=O)[C@H](CC(N)=O)NC(=O)[C@H](CO)NC(=O)[C@H](CO)NC(=O)[C@H](CCCNC(=N)N)NC(=O)[C@H](Cc1c[nH]cn1)NC(=O)[C@H](CC(C)C)NC(=O)[C@H](Cc1ccccc1)NC(=O)[C@H](CCC(=O)O)NC(=O)[C@H](C)NC(=O)[C@H](CC(C)C)NC(=O)[C@H](CCCNC(=N)N)NC(=O)[C@H](CCC(N)=O)NC(=O)[C@@H](NC(=O)[C@H](C)NC(=O)[C@@H]1CSSC[C@H](NC(=O)[C@H](CCCCN)NC(=O)[C@H](CCCCN)NC(=O)CC[C@H](NC(=O)CCCCCCCCCCCCCCCCCCC(=O)O)C(=O)O)C(=O)N[C@@H](CC(N)=O)C(=O)N[C@@H]([C@@H](C)O)C(=O)N[C@@H](C)C(=O)N[C@@H]([C@@H](C)O)C(=O)N1)[C@@H](C)O [Compound 87, [19CD]-isoGlu-KKC()NTATC()ATQRLAEFLHRSSNNF-Gly(Me)-A-Ile(Me)-LSSTNVGSNTP-NH2] ({C20 diacid-γGlu}-KKCNTATCATQRLAEFLHRSSNNF[Sar]A[NMeI]LSSTNVGSNTP-NH2; disulfide 3-8) | 63 area-% | 39 area-% | 40 area-%
2 | CC[C@H](C)[C@@H](C(=O)N[C@@H](CC(C)C)C(=O)N[C@@H](CO)C(=O)N[C@@H](CO)C(=O)N[C@H](C(=O)N[C@@H](CC(N)=O)C(=O)N[C@H](C(=O)NCC(=O)N[C@@H](CO)C(=O)N[C@@H](CC(N)=O)C(=O)N[C@H](C(=O)N1C[C@H](O)C[C@H]1C(N)=O)[C@@H](C)O)C(C)C)[C@@H](C)O)N(C)C(=O)[C@H](C)NC(=O)CN(C)C(=O)[C@H](Cc1ccccc1)NC(=O)[C@H](CC(N)=O)NC(=O)[C@H](CC(N)=O)NC(=O)[C@H](CO)NC(=O)[C@H](CO)NC(=O)[C@H](CCCNC(=N)N)NC(=O)[C@H](Cc1c[nH]cn1)NC(=O)[C@H](CC(C)C)NC(=O)[C@H](Cc1ccccc1)NC(=O)[C@H](CCC(=O)O)NC(=O)[C@H](C)NC(=O)[C@H](CC(C)C)NC(=O)[C@H](CCCNC(=N)N)NC(=O)[C@H](CCC(N)=O)NC(=O)[C@@H](NC(=O)[C@H](C)NC(=O)[C@@H]1CSSC[C@H](NC(=O)[C@H](CCCNC(=N)N)NC(=O)CC[C@H](NC(=O)CCCCCCCCCCCCCCCCCCC(=O)O)C(=O)O)C(=O)N[C@@H](CC(N)=O)C(=O)N[C@@H]([C@@H](C)O)C(=O)N[C@@H](C)C(=O)N[C@@H]([C@@H](C)O)C(=O)N1)[C@@H](C)O [Compound 105, [19CD]-isoGlu-RC()NTATC()ATQRLAEFLHRSSNNF-Gly(Me)-A-Ile(Me)-LSSTNVGSNT-Hyp-NH2] ({C20 diacid-γGlu}-RCNTATCATQRLAEFLHRSSNNF[Sar]A[NMeI]LSSTNVGSNT[Hyp]-NH2; disulfide 2-7) | 57 area-% | 57 area-% | 42 area-%
3 | CC[C@H](C)[C@@H](C(=O)N[C@@H](CC(C)C)C(=O)N[C@@H](CO)C(=O)N[C@@H](CO)C(=O)N[C@H](C(=O)N[C@@H](CC(N)=O)C(=O)N[C@H](C(=O)NCC(=O)N[C@@H](CO)C(=O)N[C@@H](CC(N)=O)C(=O)N[C@H](C(=O)N1C[C@H](N)C[C@H]1C(N)=O)[C@@H](C)O)C(C)C)[C@@H](C)O)N(C)C(=O)[C@H](C)NC(=O)CN(C)C(=O)[C@H](Cc1ccccc1)NC(=O)[C@H](CC(N)=O)NC(=O)[C@H](CC(N)=O)NC(=O)[C@H](CO)NC(=O)[C@H](CO)NC(=O)[C@H](CCCNC(=N)N)NC(=O)[C@H](Cc1c[nH]cn1)NC(=O)[C@H](CC(C)C)NC(=O)[C@H](Cc1ccccc1)NC(=O)[C@H](CCC(=O)O)NC(=O)[C@H](C)NC(=O)[C@H](CC(C)C)NC(=O)[C@H](CCCNC(=N)N)NC(=O)[C@H](CCC(N)=O)NC(=O)[C@@H](NC(=O)[C@H](C)NC(=O)[C@@H]1CSSC[C@H](NC(=O)[C@H](CCCNC(=N)N)NC(=O)CC[C@H](NC(=O)CCCCCCCCCCCCCCCCCCC(=O)O)C(=O)O)C(=O)N[C@@H](CC(N)=O)C(=O)N[C@@H]([C@@H](C)O)C(=O)N[C@@H](C)C(=O)N[C@@H]([C@@H](C)O)C(=O)N1)[C@@H](C)O [Compound 110, [19CD]-isoGlu-RC()NTATC()ATQRLAEFLHRSSNNF-Gly(Me)-A-Ile(Me)-LSSTNVGSNT-Apr-NH2] ({C20 diacid-γGlu}-RCNTATCATQRLAEFLHRSSNNF[Sar]A[NMeI]LSSTNVGSNT[Pro(4R-NH2)]-NH2; disulfide 2-7) | 74 area-% | 66 area-% | 59 area-%
4 | CC[C@H](C)[C@@H](C(=O)N[C@@H](CC(C)C)C(=O)N[C@@H](CO)C(=O)N[C@@H](CO)C(=O)N[C@H](C(=O)N[C@@H](CC(N)=O)C(=O)N[C@H](C(=O)NCC(=O)N[C@@H](CO)C(=O)N[C@@H](CC(N)=O)C(=O)N[C@H](C(=O)N1CCC[C@H]1C(N)=O)[C@@H](C)O)C(C)C)[C@@H](C)O)N(C)C(=O)[C@H](C)NC(=O)CN(C)C(=O)[C@H](Cc1ccccc1)NC(=O)[C@H](CC(N)=O)NC(=O)[C@H](CC(N)=O)NC(=O)[C@H](CO)NC(=O)[C@H](CO)NC(=O)[C@H](CCCNC(=N)N)NC(=O)[C@H](Cc1c[nH]cn1)NC(=O)[C@H](CC(C)C)NC(=O)[C@H](Cc1ccccc1)NC(=O)[C@H](CCC(=O)O)NC(=O)[C@H](C)NC(=O)[C@H](CC(C)C)NC(=O)[C@H](CCCNC(=N)N)NC(=O)[C@H](CCC(N)=O)NC(=O)[C@@H](NC(=O)[C@H](C)NC(=O)[C@@H]1CSSC[C@H](NC(=O)[C@H](Cc2c[nH]c3ccccc23)NC(=O)[C@H](CCCNC(=N)N)NC(=O)CC[C@H](NC(=O)CCCCCCCCCCCCCCCCCCC(=O)O)C(=O)O)C(=O)N[C@@H](CC(N)=O)C(=O)N[C@@H]([C@@H](C)O)C(=O)N[C@@H](C)C(=O)N[C@@H]([C@@H](C)O)C(=O)N1)[C@@H](C)O [Compound 174, [19CD]-isoGlu-RWC()NTATC()ATQRLAEFLHRSSNNF-Gly(Me)-A-Ile(Me)-LSSTNVGSNTP-NH2] ({C20 diacid-γGlu}-RWCNTATCATQRLAEFLHRSSNNF[Sar]A[NMeI]LSSTNVGSNTP-NH2; disulfide 3-8) | 92 area-% | 31 area-% | 39 area-%
